Results on 18 compounds are retold here after patent publication US20130040935A1, “CYCLIC KETO-ENOLS FOR THERAPY” (BAYER INTELLECTUAL PROPERTY GMBH, priority 2010, published 2013).

Read-outs that look alike come from different tables or passages of the source.

One experiment has as its system MCF7. Kind of experiment: Cell proliferation assay (CellTiter-Glo, 96 h), MCF7. Type of experiment: cell-based. Conditions: Homo sapiens. The essentials: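 Cells seeded at 2000-5000 cells/well, incubated overnight at 37° C., then exposed to compound in growth medium for 96 hours at 37° C. Viability read by CellTiter-Glo luminescence; t=0 values subtracted from t=96 h values, and percent growth inhibition derived relative to untreated controls.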
(In ATP-based viability assays light output follows the ATP content of the culture.)

Experiment [1] addresses T1, human ACC1 (acetyl-coenzyme A carboxylase alpha transcript variant 1) (Homo sapiens, UniProt Q13085).
T1 construct: FLAG (C); made in house; host or cells: baculovirus-infected insect cells (Hi5)
Nature of the experiment: Human ACC1 enzyme assay, Assay B1 (ADP-Glo). Type of experiment: biochemical. On the technique in general: In ADP-Glo the light output rises with the ADP produced.

Experiment [2] relates to malonyl-CoA in a tumour (human MCF-7 breast cancer cells). Kind of experiment: Mode-of-action experiment: intratumour malonyl-CoA in MCF-7 tumours after oral administration. In kind it is in vivo, female nude mice (NMRI-nude (nu/nu)). Conditions: Mus musculus, after 7 h. Here is the method:
Mode-of-Action Experiment
Prior to the determination of the activity in the MCF-7 model, some of the test substances were examined in a “mode of action” experiment. The principle of this experiment is that short-term application of a test substance capable of inhibiting ACC1 and/or ACC2 in a living organism after oral administration reduces malonyl-CoA in a tumour. To this end, in the experiment 2 million human MCF-7 breast cancer cells were injected subcutaneously into female nude mice (NMRI-nude (nu/nu) mice, Taconic M&B A/S, 1 day beforehand administration of a pellet for the release of oestrogen over a period of at least 60 days). Once the tumour extended to an area of about 60-70 mm^2, the test substance was administered orally over a period of 1-3 days, and at defined points in time the intratumour content of malonyl-CoA was then determined and compared to the vehicle control. The method is described in Anal Chem 2008 Aug. 1; 80(15):5736-42. Epub 2008 Jul. 9.).

In experiment [3] the target is human ACC2 (acetyl-coenzyme A carboxylase 2) (Homo sapiens, UniProt O00763). Nature of the experiment: Human ACC2 enzyme assay, Assay B2 (ADP-Glo).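 Further: human ACC2 activity read as ADP product, detected by luciferase glow luminescence after residual ATP removal, enzyme near 2 ng/µl in linear range, detection steps at 22 °C.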
Experiment [4] deals with acetyl-CoA carboxylase 2 (ACC2) (Homo sapiens, UniProt O00763). Nature of the experiment: Human ACC2 enzyme assay, Assay A2 (HTRF ADP immunoassay).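 Further: ADP generated by ACC2 quantified via competitive time-resolved FRET between europium cryptate anti-ADP antibody and d2-tagged ADP, enzyme kept in linear range near 0.6 ng/µl.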
In another experiment the test system is KM12. Nature of the experiment: Cell proliferation assay (CellTiter-Glo, 96 h), KM12. Type of experiment: cell-based. The conditions noted are these: Homo sapiens, 96-hour incubation. Here is the method: In accordance with the invention, the substances were tested in cell-based assays for the ability of the substances of inhibiting tumour cell proliferation after a 96-hour incubation with the substance. Cell viability was tested using the CellTiter-Glo® luminescent cell viability assay (Promega). The cells were sown at a density of 2000-5000 cells/well (depending on the cell line) in 100 μl growth medium on 96-well microtitre plates. For each cell line examined, cells were sown on a separate plate to determine the luminescence at t=0 hours and t=96 hours. After overnight incubation at 37° C., the luminescence values for the t=0 samples were determined. The dose plates for the t=96 hours points in time were treated with substances diluted with growth medium. The cells were then incubated at 37° C. for 96 hours, and the luminescence values for the t=96 hours sample were then determined. For data analysis, the t=0 values were subtracted from the t=96 hour values for treated and untreated samples. The differences in luminescence in percent between substance-treated samples and control values were used to determine the growth inhibition in percent.
The substances were tested in the following cell lines which represent the stated indications in an exemplary manner: […]
Protocol: The inhibitory activity of the substances of this invention with regard to acetyl-CoA carboxylase 2 (ACC2) was measured using the ACC2 assay described in the paragraphs below. The basic principle of the assay is the measurement of adenosine diphosphate (ADP), which is formed as a by-product, by means of an HTRF®-based competitive immunoassay (HTRF=Homogeneous Time Resolved Fluorescence).
The amount of complex of d2-labelled ADP and europium cryptate-labelled anti-ADP antibody was then determined by measuring the resonance energy transfer of europium cryptate to d2.

Another experiment has as its target recombinant human ACC1 (Homo sapiens, UniProt Q13085). Nature of the experiment: Human ACC1 enzyme assay, Assay A1 (HTRF ADP immunoassay).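 Further: ADP generated by the enzyme quantified via competitive time-resolved FRET, read as europium cryptate to d2 energy transfer after 1 h at 22 °C with labelled ADP tracer and anti-ADP antibody.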 A general note: TR-FRET usually uses a lanthanide donor and a delayed reading to cut background.
The mark [5] stands for this setting: MCF7, Table 7, 96-hour incubation.
Setting [6] is: Assay B1, read-out: ACC 1 (=B1) IC50.

acetyl-CoA carboxylase 2 (ACC2), sequence (O00763 39-2458 limits assumed): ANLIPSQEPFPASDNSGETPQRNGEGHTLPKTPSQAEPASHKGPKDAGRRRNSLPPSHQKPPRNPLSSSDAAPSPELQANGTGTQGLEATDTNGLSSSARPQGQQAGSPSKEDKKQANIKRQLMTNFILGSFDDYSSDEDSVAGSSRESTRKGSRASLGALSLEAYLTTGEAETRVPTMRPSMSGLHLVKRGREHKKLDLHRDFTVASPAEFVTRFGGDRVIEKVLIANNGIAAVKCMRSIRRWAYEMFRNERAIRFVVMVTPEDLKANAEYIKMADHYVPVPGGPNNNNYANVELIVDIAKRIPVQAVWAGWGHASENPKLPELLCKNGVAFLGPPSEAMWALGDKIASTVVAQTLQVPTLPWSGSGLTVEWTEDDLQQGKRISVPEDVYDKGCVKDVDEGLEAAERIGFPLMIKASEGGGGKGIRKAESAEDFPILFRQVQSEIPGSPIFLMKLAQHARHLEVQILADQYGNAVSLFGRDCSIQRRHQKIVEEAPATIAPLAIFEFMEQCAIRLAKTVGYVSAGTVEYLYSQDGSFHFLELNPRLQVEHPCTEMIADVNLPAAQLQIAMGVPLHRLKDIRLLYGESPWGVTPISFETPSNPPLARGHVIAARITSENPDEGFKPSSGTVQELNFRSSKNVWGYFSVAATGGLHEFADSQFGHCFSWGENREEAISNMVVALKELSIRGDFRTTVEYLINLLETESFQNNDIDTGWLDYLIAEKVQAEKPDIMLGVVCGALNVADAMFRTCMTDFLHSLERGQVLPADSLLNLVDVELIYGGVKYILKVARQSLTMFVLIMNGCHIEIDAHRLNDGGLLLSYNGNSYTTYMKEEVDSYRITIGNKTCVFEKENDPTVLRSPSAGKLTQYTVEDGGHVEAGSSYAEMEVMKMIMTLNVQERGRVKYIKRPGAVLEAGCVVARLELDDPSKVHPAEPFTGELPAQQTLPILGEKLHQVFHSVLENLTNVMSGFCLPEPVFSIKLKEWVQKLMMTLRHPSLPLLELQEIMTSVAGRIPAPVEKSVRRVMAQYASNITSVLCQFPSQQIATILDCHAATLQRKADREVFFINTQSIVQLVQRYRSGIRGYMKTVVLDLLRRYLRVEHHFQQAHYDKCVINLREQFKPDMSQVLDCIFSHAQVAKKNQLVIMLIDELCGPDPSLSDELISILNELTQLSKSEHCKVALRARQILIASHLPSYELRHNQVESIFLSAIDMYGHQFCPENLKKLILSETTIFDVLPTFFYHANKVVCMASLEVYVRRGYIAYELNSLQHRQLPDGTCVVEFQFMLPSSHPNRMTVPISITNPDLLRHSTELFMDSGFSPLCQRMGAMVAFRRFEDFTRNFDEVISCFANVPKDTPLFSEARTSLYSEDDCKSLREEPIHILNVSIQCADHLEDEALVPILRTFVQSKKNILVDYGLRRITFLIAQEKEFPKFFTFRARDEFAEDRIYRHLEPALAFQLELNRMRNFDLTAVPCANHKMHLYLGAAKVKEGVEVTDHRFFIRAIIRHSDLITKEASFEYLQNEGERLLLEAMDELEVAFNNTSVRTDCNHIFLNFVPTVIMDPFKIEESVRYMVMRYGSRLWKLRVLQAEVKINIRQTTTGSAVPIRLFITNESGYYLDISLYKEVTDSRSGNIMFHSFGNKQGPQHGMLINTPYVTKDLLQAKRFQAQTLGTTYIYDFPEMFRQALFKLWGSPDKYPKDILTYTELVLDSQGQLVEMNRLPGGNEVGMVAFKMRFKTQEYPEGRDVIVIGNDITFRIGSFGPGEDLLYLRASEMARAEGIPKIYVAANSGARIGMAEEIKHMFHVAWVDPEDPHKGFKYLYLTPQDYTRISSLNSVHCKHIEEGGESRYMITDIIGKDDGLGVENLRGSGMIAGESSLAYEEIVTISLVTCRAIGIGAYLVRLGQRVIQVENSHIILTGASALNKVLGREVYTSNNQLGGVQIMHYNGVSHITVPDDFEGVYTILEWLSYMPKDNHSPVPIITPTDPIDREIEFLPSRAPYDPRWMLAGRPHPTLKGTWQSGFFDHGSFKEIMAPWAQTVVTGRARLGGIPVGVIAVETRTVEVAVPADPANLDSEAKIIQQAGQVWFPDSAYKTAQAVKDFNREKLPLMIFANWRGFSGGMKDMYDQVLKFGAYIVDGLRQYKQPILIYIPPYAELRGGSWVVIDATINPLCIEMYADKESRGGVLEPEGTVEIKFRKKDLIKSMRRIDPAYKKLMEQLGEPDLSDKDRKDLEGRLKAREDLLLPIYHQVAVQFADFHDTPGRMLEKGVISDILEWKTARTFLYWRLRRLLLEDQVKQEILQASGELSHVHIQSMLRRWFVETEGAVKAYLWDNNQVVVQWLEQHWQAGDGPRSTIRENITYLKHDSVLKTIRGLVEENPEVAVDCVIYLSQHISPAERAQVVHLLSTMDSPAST
human ACC2 (acetyl-coenzyme A carboxylase 2), sequence (O00763 27-2458 limits assumed): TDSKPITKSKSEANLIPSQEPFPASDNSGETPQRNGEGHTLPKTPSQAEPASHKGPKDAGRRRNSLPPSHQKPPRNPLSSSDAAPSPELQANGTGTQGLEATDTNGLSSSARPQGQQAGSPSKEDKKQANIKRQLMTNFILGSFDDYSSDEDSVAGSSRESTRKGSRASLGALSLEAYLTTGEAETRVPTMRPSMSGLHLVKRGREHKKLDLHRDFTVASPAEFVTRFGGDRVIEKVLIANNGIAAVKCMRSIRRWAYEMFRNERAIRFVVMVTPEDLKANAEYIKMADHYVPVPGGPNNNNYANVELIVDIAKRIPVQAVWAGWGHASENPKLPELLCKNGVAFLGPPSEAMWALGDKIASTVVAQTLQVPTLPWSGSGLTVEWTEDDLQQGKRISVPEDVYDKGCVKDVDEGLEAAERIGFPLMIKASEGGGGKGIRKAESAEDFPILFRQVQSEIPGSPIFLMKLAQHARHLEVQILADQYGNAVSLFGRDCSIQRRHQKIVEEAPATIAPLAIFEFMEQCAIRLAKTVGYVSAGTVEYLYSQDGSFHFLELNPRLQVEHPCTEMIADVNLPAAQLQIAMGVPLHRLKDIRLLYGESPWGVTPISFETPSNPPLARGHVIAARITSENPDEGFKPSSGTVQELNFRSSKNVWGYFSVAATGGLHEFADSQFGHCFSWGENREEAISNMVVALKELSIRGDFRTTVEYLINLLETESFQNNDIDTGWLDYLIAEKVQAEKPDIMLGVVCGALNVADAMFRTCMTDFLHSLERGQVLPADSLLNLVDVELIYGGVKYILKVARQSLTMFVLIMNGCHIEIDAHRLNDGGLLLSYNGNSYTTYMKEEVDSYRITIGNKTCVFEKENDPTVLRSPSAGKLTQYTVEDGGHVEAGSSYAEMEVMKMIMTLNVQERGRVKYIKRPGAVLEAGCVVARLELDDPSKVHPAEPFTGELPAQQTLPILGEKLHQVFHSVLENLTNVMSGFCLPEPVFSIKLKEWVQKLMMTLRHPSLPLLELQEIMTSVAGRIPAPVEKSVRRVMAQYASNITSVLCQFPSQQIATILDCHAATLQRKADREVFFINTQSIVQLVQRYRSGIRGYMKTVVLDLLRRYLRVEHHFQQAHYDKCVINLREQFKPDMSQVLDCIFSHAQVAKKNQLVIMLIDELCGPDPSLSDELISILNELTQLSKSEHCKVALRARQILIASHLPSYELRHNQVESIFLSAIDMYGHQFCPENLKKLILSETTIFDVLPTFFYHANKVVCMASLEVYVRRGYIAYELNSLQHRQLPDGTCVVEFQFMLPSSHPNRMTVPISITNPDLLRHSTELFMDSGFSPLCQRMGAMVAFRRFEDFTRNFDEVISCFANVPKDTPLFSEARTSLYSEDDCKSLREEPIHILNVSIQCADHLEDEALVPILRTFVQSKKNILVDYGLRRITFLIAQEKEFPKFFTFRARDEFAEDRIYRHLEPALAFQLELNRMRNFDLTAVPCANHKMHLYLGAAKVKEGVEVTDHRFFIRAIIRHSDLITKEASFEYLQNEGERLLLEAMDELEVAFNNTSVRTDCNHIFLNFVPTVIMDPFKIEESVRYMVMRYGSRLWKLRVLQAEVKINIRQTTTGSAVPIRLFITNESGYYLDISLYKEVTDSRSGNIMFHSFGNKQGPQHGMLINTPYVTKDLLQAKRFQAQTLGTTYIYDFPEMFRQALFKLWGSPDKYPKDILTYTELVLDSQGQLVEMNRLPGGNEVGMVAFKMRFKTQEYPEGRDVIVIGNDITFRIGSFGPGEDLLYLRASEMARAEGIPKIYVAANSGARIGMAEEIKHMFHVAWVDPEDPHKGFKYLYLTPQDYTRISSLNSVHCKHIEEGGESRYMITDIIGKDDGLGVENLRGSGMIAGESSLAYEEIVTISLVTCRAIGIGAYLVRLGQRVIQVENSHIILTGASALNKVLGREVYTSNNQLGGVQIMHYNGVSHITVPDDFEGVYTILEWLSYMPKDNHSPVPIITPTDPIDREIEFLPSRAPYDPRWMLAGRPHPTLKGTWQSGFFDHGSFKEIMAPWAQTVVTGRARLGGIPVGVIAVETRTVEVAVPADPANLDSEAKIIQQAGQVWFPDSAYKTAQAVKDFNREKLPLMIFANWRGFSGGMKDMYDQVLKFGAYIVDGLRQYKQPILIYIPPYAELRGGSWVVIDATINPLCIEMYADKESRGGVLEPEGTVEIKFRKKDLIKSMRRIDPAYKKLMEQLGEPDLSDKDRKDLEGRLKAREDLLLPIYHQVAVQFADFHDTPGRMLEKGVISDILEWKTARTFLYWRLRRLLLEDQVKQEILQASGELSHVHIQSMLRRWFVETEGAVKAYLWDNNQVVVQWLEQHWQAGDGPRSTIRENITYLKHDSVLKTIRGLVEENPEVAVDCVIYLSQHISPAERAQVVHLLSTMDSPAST
Protocol for recombinant human ACC1: The inhibitory activity of the substances of this invention with regard to acetyl-CoA carboxylase 1 (ACC1) was measured using the ACC1 assay described in the paragraphs below. The basic principle of the assay is the measurement of adenosine diphosphate (ADP), which is formed as a by-product, by means of an HTRF®-based competitive immunoassay (HTRF=Homogeneous Time Resolved Fluorescence).
Typical concentrations were in the range of 2.5 ng/μl.
The amount of complex between d2-labelled ADP and europium cryptate-labelled anti-ADP antibody was then determined by measuring the resonance energy transfer from the europium cryptate to d2.

Regarding `Cc1ccc(-c2ccc(Cl)cc2)cc1C1=C(O)C2(CCC(C)(C)CC2)NC1=O` [1-20, 3-(4′-chloro-4-methylbiphenyl-3-yl)-4-hydroxy-8,8-dimethyl-1-azaspiro[4.5]dec-3-en-2-one], the values for the IC50 (with MCF7 (setting [5]); in experiment [1] (setting [6]); in experiment [3]) were 40 nM, 230 nM and 1130 nM, respectively. In experiment [2] (MCF7, po, 10 mg/kg, vs Vehicle), this compound registered an inhibition in vivo at 10 mg/kg of 87%.

For `COCC1CCC2(CC1)NC(=O)C(c1cc(-c3ccc(Cl)cc3)ccc1Cl)=C2O` (stereo not drawn) [1-54, 3-(4,4′-dichlorobiphenyl-3-yl)-4-hydroxy-8-(methoxymethyl)-1-azaspiro[4.5]dec-3-en-2-one], the concentration for half-maximal inhibition (IC50) in the experiment on MCF7 (setting [5]) was found to be 88 nM; in experiment [1], 157 nM; in experiment [3] it was 1350 nM. Also, the inhibition in vivo at 10 mg/kg in experiment [2] (MCF7, po, 10 mg/kg, vs Vehicle) came to 61%.

In the case of `Cc1ccc(-c2ccc(Cl)cc2)cc1C1=C(O)[C@]2(CC[C@H](C)CC2)NC1=O` [1-76, 3-(4′-chloro-4-methylbiphenyl-3-yl)-4-hydroxy-8-methyl-1-azaspiro[4.5]dec-3-en-2-one], the IC50 was 163 nM in experiment [1] (setting [6]) and 432 nM in experiment [3]. Besides, 10 mg/kg produced 96% inhibition in vivo in experiment [2] (MCF7, po, 10 mg/kg, vs Vehicle).

Turning to `Cc1ccc(-c2ccc(Cl)cc2)c(C)c1C1=C(O)[C@]2(CC[C@H](OCC(F)(F)F)CC2)NC1=O` [1-30, (5s,8s)-3-(4′-chloro-2,4-dimethylbiphenyl-3-yl)-4-hydroxy-8-(2,2,2-trifluoroethoxy)-1-azaspiro[4.5]dec-3-en-2-one], the IC50 amounted to 48 nM in the experiment with MCF7 (setting [5]), 481 nM in experiment [1] (setting [6]) and 976 nM in experiment [3]. For the same compound, the inhibition in vivo at 10 mg/kg in experiment [2] (MCF7, po, 10 mg/kg, vs Vehicle) came to 82%.

As to `CO[C@H]1CC[C@]2(CC1)NC(=O)C(c1cc(-c3ccc(Cl)cc3)ccc1Cl)=C2O` [1-120, (5s,8s)-3-(4,4′-Dichlorobiphenyl-3-yl)-4-hydroxy-8-methoxy-1-azaspiro[4.5]dec-3-en-2-one], the IC50 was found to be 1280 nM in experiment [4]; 70 nM in the experiment on MCF7 (setting [5]); 145 nM in experiment [1]; 2260 nM in experiment [3]; 714 nM in the experiment on KM12; 250 nM at recombinant human ACC1.

As for `COC1CCC2(CC1)NC(=O)C(c1cc(-c3ccc(Cl)cc3)ccc1Cl)=C2O` (stereo not drawn) [1-11, 3-(4,4′-dichlorobiphenyl-3-yl)-4-hydroxy-8-methoxy-1-azaspiro[4.5]dec-3-en-2-one], the results for the IC50 (in the experiment on MCF7 (setting [5]); in experiment [1]; in experiment [3]) were 124 nM, 157 nM and 4470 nM, respectively. This compound showed an inhibition in vivo at 10 mg/kg in experiment [2] (MCF7, po, 10 mg/kg, vs Vehicle) of 87%.

Regarding `Cc1ccc(-c2ccc(F)c(F)c2)cc1C1=C(O)C2(CCC3(CCCO3)CC2)NC1=O` (stereo not drawn) [1-35, 11-(3′,4′-difluoro-4-methylbiphenyl-3-yl)-12-hydroxy-1-oxa-9-azadispiro[4.2.4.2]tetradec-11-en-10-one], the figures for the IC50 (with MCF7 (setting [5]); in experiment [1]; in experiment [3]) were 94 nM, 388 nM and 6910 nM, respectively. The inhibition in vivo at 10 mg/kg in experiment [2] (MCF7, po, 10 mg/kg, vs Vehicle) is 31%.

Consider `COC1CCC2(CC1)NC(=O)C(c1cc(-c3ccc(Cl)cc3)c(C)cc1C)=C2O` (stereo not drawn) [1-7, 3-(4′-chloro-4,6-dimethylbiphenyl-3-yl)-4-hydroxy-8-methoxy-1-azaspiro[4.5]dec-3-en-2-one], for which the IC50 in the experiment with MCF7 (setting [5]) came to 57 nM; in experiment [1], 1460 nM; in experiment [3], 328 nM. In experiment [2] (MCF7, po, 10 mg/kg, vs Vehicle), this compound registered an inhibition in vivo at 10 mg/kg of 89%.

Turning to `Cc1ccc(-c2ccc(Cl)cc2)cc1C1=C(O)C2(CCC(OCC(F)(F)F)CC2)OC1=O` (stereo not drawn) [2-33, 3-(4′-chloro-4-methylbiphenyl-3-yl)-4-hydroxy-8-(2,2,2-trifluoroethoxy)-1-oxaspiro[4.5]dec-3-en-2-one], the IC50 with MCF7 (MCF7 cells) was 246 nM; in experiment [1] (Assay B1, ADP-Glo, read-out: ACC 1 (=B1) IC50), 227 nM; in experiment [3], 5000 nM. This compound also came in with an inhibition in vivo at 10 mg/kg in experiment [2] (MCF7, 10 mg/kg oral, MCF-7 tumour in nude mice, vs vehicle) of 39%.

Take `COC[C@H]1CC[C@]2(CC1)NC(=O)C(c1cc(-c3ccc(F)c(F)c3)ccc1C)=C2O` [1-112, (5s,8s)-3-(3′,4′-Difluoro-4-methylbiphenyl-3-yl)-4-hydroxy-8-(methoxymethyl)-1-azaspiro[4.5]dec-3-en-2-one]: the IC50 in experiment [4] came to 3910 nM; with MCF7 (setting [5]) it was 79 nM; in experiment [1], 200 nM; in experiment [3] it was 8430 nM; with KM12, 174 nM; on recombinant human ACC1, 167 nM.

For `CO[C@H]1CC[C@]2(CC1)NC(=O)C(c1cc(-c3ccc(Cl)cc3)ccc1C)=C2O` [1-2, (5s,8s)-3-(4′-chloro-4-methylbiphenyl-3-yl)-4-hydroxy-8-methoxy-1-azaspiro[4.5]dec-3-en-2-one], the IC50 in the experiment on MCF7 (setting [5]) was determined as 57 nM; in experiment [3], 822 nM. In experiment [2] (MCF7, po, 10 mg/kg, vs Vehicle), this compound returned an inhibition in vivo at 10 mg/kg of 96%.

In the case of `Cc1ccc(-c2ccc(Cl)cc2)cc1C1=C(O)C2(CCCOC2)NC1=O` (stereo not drawn) [1-5, 3-(4′-chloro-4-methylbiphenyl-3-yl)-4-hydroxy-7-oxa-1-azaspiro[4.5]dec-3-en-2-one], the IC50 with MCF7 (setting [5]) was 230 nM; in experiment [1] (setting [6]) it was 246 nM; in experiment [3] it was 11000 nM. In experiment [2] (MCF7, po, 10 mg/kg, vs Vehicle), this compound registered an inhibition in vivo at 10 mg/kg of 82%.

For `COCC1CCC2(CC1)NC(=O)C(c1c(C)ccc(-c3ccc(Cl)cc3)c1C)=C2O` (stereo not drawn) [1-53, 3-(4′-chloro-2,4-dimethylbiphenyl-3-yl)-4-hydroxy-8-(methoxymethyl)-1-azaspiro[4.5]dec-3-en-2-one], the IC50 amounted to 70 nM with MCF7 (setting [5]), 243 nM in experiment [1] and 632 nM in experiment [3]. The same compound gave an inhibition in vivo at 10 mg/kg in experiment [2] (MCF7, po, 10 mg/kg, vs Vehicle) of 43%.

Consider `Cc1ccc(-c2ccc(Cl)cc2)cc1C1=C(O)C2(CCC(C(C)C)CC2)NC1=O` (stereo not drawn) [1-24, 3-(4′-chloro-4-methylbiphenyl-3-yl)-4-hydroxy-8-(propan-2-yl)-1-azaspiro[4.5]dec-3-en-2-one], for which the half-inhibitory concentration (IC50) with MCF7 (setting [5]) turned out to be 27 nM; in experiment [1] (setting [6]), 230 nM; in experiment [3] it was 517 nM. The compound also yielded an inhibition in vivo at 10 mg/kg in experiment [2] (MCF7, po, 10 mg/kg, vs Vehicle) of 91%.

As for `CO[C@]1(C)CC[C@]2(CC1)NC(=O)C(c1c(C)ccc(-c3ccc(Cl)cc3)c1C)=C2O` [1-87, (5r,8r)-3-(4′-chloro-2,4-dimethylbiphenyl-3-yl)-4-hydroxy-8-methoxy-8-methyl-1-azaspiro[4.5]dec-3-en-2-one], the IC50 in experiment [4] is 7300 nM; in experiment [1], 378 nM; in experiment [3], 10500 nM; at recombinant human ACC1, 540 nM. The compound also gave an inhibition in vivo at 10 mg/kg in experiment [2] (MCF7, po, 10 mg/kg, vs Vehicle) of 71%.

For the compound `Cc1ccc(-c2ccc(F)c(F)c2)cc1C1=C(O)[C@]2(CC[C@@H](C(F)(F)F)CC2)NC1=O` [1-129, (5r,8r)-3-(3′,4′-Difluoro-4-methylbiphenyl-3-yl)-4-hydroxy-8-(trifluoromethyl)-1-azaspiro[4.5]dec-3-en-2-one], the IC50 in experiment [4] is 9610 nM; in the experiment on MCF7 (setting [5]), 172 nM; in experiment [1] (setting [6]), 267 nM; in experiment [3] it was 10600 nM; on recombinant human ACC1, 349 nM.

For `Cc1cc(F)c(-c2ccc(Cl)c(F)c2)cc1C1=C(O)C2(CCC(C(F)(F)F)CC2)NC1=O` (mixture of isomers) [1-94, 3-(4′-Chloro-3′,6-difluoro-4-methylbiphenyl-3-yl)-4-hydroxy-8-(trifluoromethyl)-1-azaspiro[4.5]dec-3-en-2-one], the IC50 in experiment [4] amounted to 873 nM; in the experiment on MCF7 (setting [5]), 85 nM; in experiment [1] (setting [6]), 99 nM; in experiment [3] it was 2030 nM; at recombinant human ACC1 it was 73 nM.

Regarding `CO[C@H]1CC[C@]2(CC1)NC(=O)C(c1cc(-c3ccc(F)c(F)c3)ccc1C)=C2O` [1-136, (5s,8s)-3-(3′,4′-Difluoro-4-methylbiphenyl-3-yl)-4-hydroxy-8-methoxy-1-azaspiro[4.5]dec-3-en-2-one], the IC50 in experiment [4] worked out at 6490 nM; in the experiment on MCF7 (setting [5]), 156 nM; in experiment [1], 233 nM; in experiment [3], 12500 nM; at recombinant human ACC1 it was 239 nM.

The term IC50 denotes the midpoint of a concentration-inhibition curve. Broadly, the inhibition in vivo is the share of the control response that was lost under treatment.
